Results as given in patent publication US20170239351A1, “Therapeutic Combinations of a BTK Inhibitor, a PI3K Inhibitor, a JAK-2 Inhibitor, a PD-1 Inhibitor, and/or a PD-L1 Inhibitor” (Acerta Pharma B.V., priority 2014, published 2017).

Tests used:
human platelets = experiment: GPVI (convulxin-induced) platelet aggregation; format: cell-based
Procedure: GPVI platelet aggregation was measured for Formula (XVIII) and Formula (XX-A) (ibrutinib). Blood was obtained from untreated humans, and platelets were purified from […] by centrifugation. Cells were resuspended to a final concentration of 350,000/μL in buffer containing 145 mmol/L NaCl, 10 mmol/L HEPES, 0.5 mmol/L Na2HPO4, 5 mmol/L KCl, 2 mmol/L MgCl2, 1 mmol/L CaCl2, and 0.1% glucose, at pH 7.4. Stock solutions of Convulxin (CVX) GPVI were prepared on the day of experimentation and added to platelet suspensions 5 minutes (37° C., 1200 rpm) before the induction of aggregation. Aggregation was assessed with a Chronolog Lumi-Aggregometer (model 540 VS; Chronolog, Havertown, Pa.) and permitted to proceed for 6 minutes after the addition of agonist. The results are reported as maximum percent change in light transmittance from baseline with platelet buffer used as a reference.
In FIG. 129, the results of CVX-induced (250 ng/mL) human platelet aggregation results before and 15 minutes after administration of the BTK inhibitors to 6 healthy individuals are shown.

CD8^+ T cell = experiment: CD8+ T cell viability; format: cell-based
T helper 17 (Th17) cells = experiment: Effect on T helper 17 (Th17) cells; format: cell-based
[1] = In vitro metabolism in hepatocytes with 14C-labeled drug; format: in vitro ADME, mouse, rat, dog, rabbit, monkey, and human
[2] = Cardiovascular function study in awake telemeterized animals; settings: single doses through 30 mg/kg
primary CLL cells = experiment: Rituximab ADCC assay (51Cr release), NK cells against autologous tumor cells; format: cell-based, human; settings: 1 μM; primary CLL samples
CD4^+ T cells = experiment: Th17 and Treg development from CD4+ T cells; format: cell-based
Procedure: Enriched CD4^+ T cells are plated on 24-well culture dishes that have been precoated 2 hr with 250 μL anti-TCRβ (0.5 μg/mL) plus anti-CD28 (5 μg/mL) at 37° C. in PBS. The cells are then supplemented with media containing BTK inhibitors along with the skewing cytokines as indicated in the following. The Th17 and Treg cultures are grown for 4 days before analysis. The cells are maintained for an additional 3 days with skewing cytokines (Th17; 20 ng/mL IL-6, 0.5 ng/mL TGF-β, 5 μg/mL IL-4, 5 μg/mL IFN-γ and Treg; 0.5 ng/mL TGF-β, 5 μg/mL IL-4, 5 μg/mL IFN-γ) and are supplemented with IL2 as a growth factor.

B cell lymphoma = experiment: Veterinary clinical trial in canine B cell lymphoma; format: in vivo, companion dogs
From the text: Canine B cell lymphoma exists as a pathological entity that is characterized by large anaplastic, centroblastic or immunoblastic lymphocytes with high proliferative grade, significant peripheral lymphadenopathy and an aggressive clinical course. While some dogs respond initially to prednisone, most canine lymphomas progress quickly and must be treated with combination therapies, including cyclophosphamide, vincristine, doxorubicin, and prednisone (CHOP), or other cytotoxic agents. In their histopathologic features, clinical course, and high relapse rate after initial treatment, canine B cell lymphomas resemble diffuse large B cell lymphoma (DLBCL) in humans. Thus, responses of canine B cell lymphomas to experimental treatments are considered to provide proof of concept for therapeutic candidates in DLBCL.
Enrollment has completed for both arms.
Intra-subject dose escalation was allowed. Six of the 11 dogs that initiated at 2.5 or 5 mg/kg once daily were escalated and completed the study with dosages of 10 mg/kg twice daily. Among all the dose cohorts, 8 dogs had shrinkage of target lesions >20%; the best tumor responses were between 45-49% reduction in the sum of target lesions in two dogs. […] CR were defined as disappearance of all evidence of disease per evaluator judgment, and absence of new lesions. Vali, et al., Vet. Comp. Oncol. 2010, 8, 28-37. […]

NK cells = experiment: Whole blood NK cell degranulation/ADCC assay with obinutuzumab-opsonised MEC-1 cells; format: cell-based, human; settings: CD56+/CD107a+ NK cells; n=3 experiments
[3] = system: KPC derived mouse pancreatic cancer cells; experiment: Orthotopic pancreatic cancer model (KPC-derived cells); format: in vivo, C57BL/6 mice; settings: 15 mg/kg oral of each drug
Procedure: Orthotopic pancreatic cancer models in mice are clinically relevant, benefit from tissue site-specific pathology, and allow for study of metastasis. Qiu and Su, Methods Mol. Biol. 2013, 980, 215-223. A cell line derived from KrasG12D; Trp53R172H; Pdx1-Cre (KPC) mice was orthotopically implanted into the head of the pancreas after 35 passages. Based on the mice background from where the cell lines were generated, 1×10^6 cells were injected in C57BL/6 mice. Throughout the experiment, animals were provided with food and water ad libitum and subjected to a 12-h dark/light cycle. Animal studies were performed in accordance with the U.S. Public Health Service “Guidelines for the Care and Use of Laboratory Animals” (IACUC). After euthanization, pancreatic tumors were dissected out, weighed and single cell suspensions were prepared for flow cytometry analysis.
Results of the experiments are shown in FIG. 110, which illustrates tumor growth suppression in the orthotopic pancreatic cancer model. The statistical p-value (presumption against null hypothesis) is shown for each tested single active pharmaceutical ingredient and for the combination against the vehicle.
In this study, KrasG12D;Trp53R172H; Pdx1-Cre (KPC) derived mouse pancreatic cancer cells (10,000 cells) were injected into the pancreases of 24 female mice. After one week of expansion, drug treatment was started in mice developing pancreatic tumors.
Single cell suspensions from tumor samples were prepared as follows. Mouse tumor tissue was collected and stored in PBS/0.1% soybean trypsin inhibitor prior to enzymatic dissociation. […] Following surface staining, samples were acquired on a BD Fortessa and analyzed using FlowJo (Treestar) software.

CC#CC(=O)N1CCC[C@H]1c1nc(-c2ccc(C(=O)Nc3ccccn3)cc2)c2c(N)nccn12 [Formula (XVIII), (S)-4-(8-amino-3-(1-(but-2-ynoyl)pyrrolidin-2-yl)imidazo[1,5-a]pyrazin-1-yl)-N-(pyridin-2-yl)benzamide]
GPVI platelet aggregation (human platelets): does not
effect on CD8+ T cell viability (CD8^+ T cell): no effect on CD8^+ T cell viability
effect on Th17 cells (T helper 17 (Th17) cells): no adverse effect on T helper 17 (Th17) cells
metabolites found [1]: two mono-oxidized metabolites and a glutathione conjugate
unique human metabolite [1]: No unique human metabolite was identified
body temperature, cardiovascular, or ECG (including QT interval) parameters [2]: no meaningful changes
effect on rituximab-mediated ADCC (primary CLL cells): not inhibited
effect on Th17 and Treg development (CD4^+ T cells): no adverse effects on Th17 and Treg development
complete responses (CR) (B cell lymphoma; Arm 1: 21 dogs, Arm 2: 10 dogs): not observed
Median time to best response (B cell lymphoma; dog, in vivo): 7 days
reduction of obinutuzumab-stimulated NK cell degranulation (NK cells): minimal effect
immunosuppressive tumor associated myeloid cells and Tregs [3]: reduce immunosuppressive tumor associated myeloid cells and Tregs
tumor volume versus vehicle [3]: statistically significant reductions in tumor volume
